The test system of one assay is IL-8 release. Briefly: In vitro inhibition of LPS-induced IL-8 release in ECV304 endothelial cells (ELISA). Type of assay: cell-based, human. Conditions: for IC50: 1 hour pre-incubation, supernatant after one night, concentration giving 50% of highest obtainable inhibition, read-out: IL-8 release potency IC50; for IL-8 release efficacy (%): highest obtainable inhibition. The protocol: A) Release of Interleukin 8 (IL-8)
A human endothelial immortalized cell line (ECV304) was obtained from ATTC (Rockville, Md.) and grown in Medium 199, mod. Earle's salts (GIBCO, Life Technologies, Grand Island, N.Y.), supplemented with 20% Fetal Calf Serum (GIBCO), 100 U/ml of penicillin and 100 µg/ml of streptomycin (SIGMA, St. Louis, Mo.) in wet atmosphere with 5% CO2 at 37° C.
The cells were cultivated on 96 well plates up to obtain a confluent monolayer. The compounds to be evaluated were dissolved in DMSO at 10^−2M and diluted with culture medium.
The compounds were pre-incubated with the cells 1 hour before the challenge.
The release of IL-8 was induced by adding 0.66 µg/ml of lipopolysaccharide B (E. coli 055:B5, Difco, Detroit, Mich.) in a final volume of 200 µl.
After one night, the supernatant was collected for the IL-8 test.
The specific immunoreactivity for IL-8 in the culture supernatant was measured with ELISA kit (Amersham, UK).
Results were expressed as the highest obtainable inhibition (efficacy) and, whether possible, as the concentration at which 50% of such effect (TC50) is obtained.

In a further assay the test system is superoxide anion release. Briefly: In vitro inhibition of FMLP-stimulated superoxide anion release from neutrophils (Lucigenin-enhanced chemiluminescence). To be noted: neutrophils of healthy volunteers, 30 minutes pre-incubation at 37° C., FLMP stimulation, read-out: O2 release IC50. Type of assay: cell-based, human. The protocol: B) Release of Superoxide Anions
Neutrophils were separated from venous blood of healthy volunteers by centrifugation on Ficoll-Hypaque, followed by sedimentation on 6% dextrane and osmotic lysis of erythrocytes. Neutrophils were then washed and resuspended in a medium made of RPMI-1640 supplemented with 5% foetal calf serum and 1.34 mmoles/l of disodium dihydrate EDTA. The cells were maintained for 24 hours at 4° C. and before the test the suspension was centrifugated and resuspended in HBSS (Hanks' balanced salt solution). The vitality and the purity of the neutrophil preparation was verified by dyeing with Trypan blue and Turk blue.
The superoxide anions were measured by using Lucigenin (bis-N-methylacridinium nitrate)-enhanced chemiluminescence technique.
Neutrophils (2×10^6 cells/ml) were pre-incubated for 30 minutes at 37° C. in 900 µl of HBSS with and without the tested compound (reading system).
The production of superoxide anions was measured with a Lumac/3M bio-counter after addition of 100 µl of a solution in HBSS of Lucigenin (2 mmoles/l) and N-formyl-L-methionyl-L-leucyl-L-phenylalanine (FLMP) as stimulating agent at the concentration of […] to the reading system. FLMP was dissolved in DMSO (1×10^−2 M) and further diluted in HBSS. The compound to be tested was dissolved in DMSO at the concentration of 10^−2 M. Lower concentrations, in DMSO, were prepared from that solution, and tested. The DMSO amount present in the reading system was lower than 1%.
The luminosity values obtained at the peak, for each tested concentration of the compound, were transformed in inhibition percentage in comparison with the reference.
The concentration able to inhibit the production of superoxide anion at 50% (IC50) was calculated from the obtained “dose-response” curve.

Assay [1] deals with neutrophilia induced by LPS. Briefly: In vivo inhibition of neutrophilia induced by LPS after repeated administrations (bronchoalveolar lavage). To be noted: Sprague-Dawley rats, compound i.p. twice a day for 6 days and 7th day 1 hour before and 5 hours after LPS 6 mg/kg i.p.; BALF 24 hours after LPS. More on the design: species or system rat. The protocol:
In vivo Pharmacological Activity
Male Sprague-Dawley rats weighing between 200 and 300 g were used.
The rats used in the experiments were not evidently infected. The animals were maintained in standard conditions for 7 days before being sacrificed.
LPS (E. coli lipopolisaccharide) (endotoxin; 055:B5 serum-type; Sigma Chemical Co., St. Louis, Mo.) was dissolved in saline sterile solution and was administered by intraperitoneal injection (i.p.) at a dose of 6 mg/kg (1 ml/kg). Analogously the saline solution and/or the carrier (saline solution+0.5% Tween 20) were injected into the control animals.
Compound Administration (Prophylactic Treatment)
Each compound was administered by i.p. injection twice a day for 6 days, the 7th day 1 hour before and 5 hours after LPS administration. The compounds were suspended with 0.5% Tween 20 in the saline solution.
After 24 hours from the LPS injection rats were sacrificed with an overdose of nembutal (100 mg/kg i.p.). The trachea was incannulated and the lung was washed by instilling two 5 ml aliquots of PBS (phosphate buffer saline) at 37° C. and the fluid was immediately removed. The fluid was again injected and the procedure was altogether repeated three times for each aliquot.
Cell Counting and Differentiation
200 μl of BALF (bronchoalveolar lavage fluid) were diluted in 1 ml of cold water and 19 ml of Isoton. The overall number of cells was counted twice by using Contraves autolyser 800. When the total number was lower than 2000, BALFs were centrifugated at 800 rpm for 10 minutes in order to separate the cells from the supernatant. The supernatants were discharged and the cells resuspended in a small amount of PBS. For the cytological evaluation, 50 μl of the solution with the resuspended cells were centrifugated for 1 minute at 1300 rpm by using a Shandon Cytospin centrifuge. The slides were fixed in acetone and dyed with DiffQuick. The differential counts of cells were performed on each slide by counting 200 cells at random; cellular types were classified as neutrophils, eosinophils and mononuclear cells according to morphological standard criteria.

Setting [2] is: Homo sapiens, ECV-304, LPS 0.66 μg/ml.

Read-outs that look alike come from different tables or passages of the source.

The IC50 is the concentration that inhibits the measured activity by half.

As to “3′-de(dimethylamino)-erythromycin A (E)-9-O-[2-methoxy-ethoxy]-methyl]-oxime] [Compound 5]”, in the assay with IL-8 release (LPS 0.66 μg/ml), the IC50 was 12 µM and the “IL-8 release efficacy (%)” value was 55 ± 0.9%. Further, the IC50 with superoxide anion release is greater than 100 µM.

With “3′-de(dimethylamino)-erythromycin A (E)-9-[O-[2-[6-[(thiazol-2-ylmethyl)-amino]-hexyl-amino]-ethyl]-oxime] [Compound 8]”, the “IL-8 release efficacy (%)” value in the assay on IL-8 release (LPS 0.66 μg/ml) was 19 ± 1%. For the same compound, in the assay with superoxide anion release, the IC50 amounted to 3.5 ± 0.2 µM.

As to “3′-de(dimethylamino)-erythromycin A (E)-9-[O-[2-[(6-amino-hexyl)-amino]-ethyl]-oxime] [Compound 6]”, in the assay with IL-8 release (LPS 0.66 μg/ml), the IC50 stood at 7.7 ± 0.3 µM and the “IL-8 release efficacy (%)” value is listed as 37 ± 10%. Also, the IC50 with superoxide anion release came out at 9.9 ± 0.69 µM. Further, the “Inhibition (%)” value in assay [1] was −11%.

On to “3′-de(dimethylamino)erythromycin A (E)-9-[O-[2-[6-(benzylamino)-hexylamino]-ethyl]-oxime] [Compound 9]”, for which, in the assay with superoxide anion release, the IC50 is 3.5 ± 0.5 µM. Moreover, the “Inhibition (%)” value in assay [1] is reported as −96%.

As for `CCC1OC(=O)C(C)C(OC2CC(C)(OC)C(O)C(C)O2)C(C)C(OC2OC(C)C=CC2O)C(C)(O)CC(C)C(=NO)C(C)C(O)C1(C)O` (stereo not shown) [Compound 1, 3′-de(dimethylamino)-3′,4′-dehydro-erythromycin A Oxime], the “IL-8 release efficacy (%)” value in the assay with IL-8 release (LPS 0.66 μg/ml) is reported as 29%. In addition, in the assay on superoxide anion release, the IC50 came out at 35.3 ± 5.4 µM.

In the case of `CC[C@H]1OC(=O)[C@H](C)[C@@H](O[C@H]2C[C@@](C)(OC)[C@@H](O)[C@H](C)O2)[C@H](C)[C@@H](O[C@@H]2O[C@H](C)CC[C@H]2O)[C@](C)(O)C[C@@H](C)C(=NO)[C@H](C)[C@@H](O)[C@]1(C)O` [Compound 2, 3′-de(dimethylamino)-erythromycin A Oxime], the “IL-8 release efficacy (%)” value in the assay on IL-8 release (LPS 0.66 μg/ml) was determined as 29%. Besides, the IC50 in the assay with superoxide anion release stood at 11.4 ± 2.9 µM. Further, the “Inhibition (%)” value in assay [1] was −31%.

As to `CCC1OC(=O)C(C)C(OC2CC(C)(OC)C(O)C(C)O2)C(C)C(OC2OC(C)CCC2O)C(C)(O)CC(C)C(=NOCCOCCNCc2ccccc2)C(C)C(O)C1(C)O` (stereo not shown) [Compound 11, 3′-de(dimethylamino)-erythromycin A (E)-9-[O-[2-[2-(benzylaminol)-ethoxy]-ethyl]-oxime]], the “IL-8 release efficacy (%)” value in the assay on IL-8 release (LPS 0.66 μg/ml) was 22 ± 4%. For the same compound, the IC50 with superoxide anion release turned out to be 5 µM.

With `CCC1OC(=O)C(C)C(OC2CC(C)(OC)C(O)C(C)O2)C(C)C(OC2OC(C)CCC2O)C(C)(O)CC(C)C(=NOCCNCCNCc2nccs2)C(C)C(O)C1(C)O` (stereo not shown) [Compound 16, 3′-de(dimethylamino)-erythromycin A (E)-9-[O-[2-[2-[(thiazol-2-ylmethyl)-amino]-ethyl-amino]-ethyl]-oxime]], in the assay with IL-8 release (LPS 0.66 μg/ml), the “IL-8 release efficacy (%)” value came out at 35%. Moreover, in the assay on superoxide anion release, the IC50 amounted to 14.3 µM.

As for `CC[C@H]1OC(=O)[C@H](C)[C@@H](O[C@H]2C[C@@](C)(OC)[C@@H](O)[C@H](C)O2)[C@H](C)[C@@H](O[C@@H]2O[C@H](C)C[C@H](N(C)C)[C@H]2O)[C@](C)(OC)C[C@@H](C)C(=O)[C@H](C)[C@@H](O)[C@]1(C)O` [clarithromycin, reference compound], the IC50 came to 8.9 ± 3.2 µM in the assay on IL-8 release (setting [2]) and 49.2 ± 1.9 µM with superoxide anion release (Homo sapiens, Neutrophil). Also, the “IL-8 release efficacy (%)” value in the assay on IL-8 release (LPS 0.66 μg/ml) is listed as 48 ± 6%. Besides, in assay [1], the “Inhibition (%)” value is −47%.

Turning to `CC[C@H]1OC(=O)[C@H](C)[C@@H](O[C@H]2C[C@@](C)(OC)[C@@H](O)[C@H](C)O2)[C@H](C)[C@@H](O[C@@H]2O[C@H](C)C[C@H](N(C)C)[C@H]2O)[C@](C)(O)C[C@@H](C)C(=O)[C@H](C)[C@@H](O)[C@]1(C)O` [erythromycin, reference compound], the “IL-8 release efficacy (%)” value in the assay on IL-8 release (LPS 0.66 μg/ml) was found to be 27 ± 1%. The IC50 in the assay on superoxide anion release (Homo sapiens, Neutrophil) was greater than 100 µM. Besides, the “Inhibition (%)” value in assay [1] is reported as −46%.

Turning to `CC[C@H]1OC(=O)[C@H](C)[C@@H](O[C@H]2C[C@@](C)(OC)[C@@H](O)[C@H](C)O2)[C@H](C)[C@@H](O[C@@H]2O[C@H](C)C[C@H](N(C)C)[C@H]2O)[C@](C)(O)C[C@@H](C)/C(=N\OCOCCOC)[C@H](C)[C@@H](O)[C@]1(C)O` [roxithromycin, reference compound], the half-maximal inhibitory concentration (IC50) with IL-8 release (setting [2]) came to 5.5 ± 1.5 µM; with superoxide anion release (Homo sapiens, Neutrophil), 89 ± 5 µM. In the assay on IL-8 release (LPS 0.66 μg/ml), the “IL-8 release efficacy (%)” value is reported as 43 ± 6%. Besides, in assay [1], the “Inhibition (%)” value is recorded as −50%.

For the origin of these results see patent US6455576B1, “Macrolides with anti-inflammatory activity” (Zambon Group S.p.A., priority 1999, dated 2002).
